From ChEMBL document CHEMBL1201862, “PubChem BioAssay data set” (2004)
Calls of active or inactive are those of the source.

Columns and labels:
[1] = target: Glucose-6-phosphate 1-dehydrogenase (Homo sapiens, UniProt P11413); assay: inhibition of Homo sapiens G6PD, dose series – biochemical, fluorescence, selectivity assay for P. falciparum G6PD inhibitor project, dose response (AID 504792); format: functional
[2] = viability of uninfected HEp-2 cells – cell-based, HTS, cytotoxicity control for RSV inhibitor project, dose response (AID 2410); format: functional; settings: human respiratory syncytial virus
Major prion protein = Major prion protein (Homo sapiens, UniProt P04156); format: functional, cell-based
Genome polyprotein = Genome polyprotein (Hepatitis C virus, UniProt Q2Q167); assay: disruption of hepatitis C core self-association – biochemical, TR-FRET, dose response (AID 2159); set-up: species or system Hepacivirus hominis;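 note: blocks dimerization of HCV core protein measured by TR-FRET between tagged core106 pairs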
[3] = Luminescence-based cell-based high throughput dose response assay to identify activators of the DAF-12 from the parasite S. stercoralis (ssDAF-12).; format: functional
[4] = target: T1, Oxysterols receptor LXR-beta (Homo sapiens, UniProt P55055); assay: LXR agonists, Gal4 luciferase reporter, dose response, counter-screen for ssDAF-12 agonist project, cell-based, luminescence, HEK293, S. stercoralis campaign (AID 720737); format: functional; settings: read-out: IC50 (the source's name)
T1 sequence (P55055 whole entry): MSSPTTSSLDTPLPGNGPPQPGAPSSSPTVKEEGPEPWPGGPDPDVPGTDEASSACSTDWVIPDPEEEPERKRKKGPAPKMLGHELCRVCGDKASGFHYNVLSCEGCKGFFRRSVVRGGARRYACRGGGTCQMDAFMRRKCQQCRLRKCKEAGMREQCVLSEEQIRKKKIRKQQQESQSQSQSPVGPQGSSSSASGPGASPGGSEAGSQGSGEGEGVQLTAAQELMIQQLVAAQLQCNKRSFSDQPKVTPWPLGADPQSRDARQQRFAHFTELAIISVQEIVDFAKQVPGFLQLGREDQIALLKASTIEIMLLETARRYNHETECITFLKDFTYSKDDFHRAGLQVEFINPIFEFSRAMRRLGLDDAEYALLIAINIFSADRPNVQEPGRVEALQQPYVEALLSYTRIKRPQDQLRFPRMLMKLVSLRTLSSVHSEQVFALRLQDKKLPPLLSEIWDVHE

[5] = target: Heat shock protein HSP 90-alpha (Homo sapiens, UniProt P07900); assay: Luminescence-based dose response biochemical high throughput screening assay for inhibitors of the Heat Shock Protein 90 (HSP90). [Related pubchem assays: 1831 (Summary AID.), 1846 (Confirmation screen.), 1789 (Primary screen.)]
[6] = target: Sphingosine 1-phosphate receptor 2 (Homo sapiens, UniProt O95136); assay: Dose Response Cell Based Assay for Antagonists of the S1P2 Receptor. [Related pubchem assays: 856, 736 ]; format: functional
[7] = HEK-293T cell viability reduction – luminescence, B-cell screen hits, cytotoxicity control for BCR NF-kB inhibitor project, dose response (AID 489021); format: functional, cell-based;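 note: HEK-293T cells carrying an NF-kB luciferase reporter; cells exposed to compound for about 14 hours before viability readout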
[8] = target: T2, COUP transcription factor 2 (Homo sapiens, UniProt P24468); assay: Luminescence-based cell-based high throughput dose response assay to identify inhibitors of COUP-TFII (NR2F2).; format: functional;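 note: HEK293 cells transiently cotransfected with COUP-TFII expression vector and reporter; luciferase reporter luminescence driven by COUP-TFII from the pX2-168 reporter plasmid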
T2 sequence (P24468 whole entry): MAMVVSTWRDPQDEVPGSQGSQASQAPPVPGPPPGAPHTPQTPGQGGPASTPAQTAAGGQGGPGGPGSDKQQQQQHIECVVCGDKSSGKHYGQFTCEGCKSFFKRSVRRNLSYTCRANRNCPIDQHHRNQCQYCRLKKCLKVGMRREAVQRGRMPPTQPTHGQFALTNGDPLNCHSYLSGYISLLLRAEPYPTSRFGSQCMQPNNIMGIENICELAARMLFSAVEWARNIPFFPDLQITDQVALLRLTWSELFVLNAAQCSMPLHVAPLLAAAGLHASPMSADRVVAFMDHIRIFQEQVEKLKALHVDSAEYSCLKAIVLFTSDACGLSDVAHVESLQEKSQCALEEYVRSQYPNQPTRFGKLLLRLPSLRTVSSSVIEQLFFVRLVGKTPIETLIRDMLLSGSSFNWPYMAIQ

Galanin receptor type 2 = Galanin receptor type 2 (Homo sapiens, UniProt O43603); assay: Dose Response cell-based high-throughput screening assay to identify antagonists of galanin receptor 2 (GALR2). [Related pubchem assays: 828, 866 ]; format: functional
[9] = target: Mitogen-activated protein kinase 10 (Homo sapiens, UniProt P53779); assay: Dose response biochemical screening assay for inhibitors of c-Jun N-Terminal Kinase 3 (JNK3). [Related pubchem assays: 746 ]
Protein Tat = Protein Tat (Human immunodeficiency virus type 1 group M subtype B (isolate HXB2)(HIV-1), UniProt P04608); format: functional;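 note: tat binding to TAR RNA read out by fluorescence polarization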
[10] = OVCAR-3 cell viability loss – plate reader, dry powder samples, PAX8 inhibitor project, dose response (AID 743044); format: functional, cell-based
Paired box protein Pax-8 = Paired box protein Pax-8 (Homo sapiens, UniProt Q06710); assay: PAX8 transcriptional activity inhibition in RMG-I – RMG-I cells, luciferase, cherry-pick, dose response (AID 687027); format: functional, cell-based;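 note: luciferase reporter driven by Pax8 target thyroperoxidase promoter measured by SteadyGlo luminescence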
[11] = IGROV1 cell killing – plate reader, dry powder samples, PAX8 inhibitor project, dose response (AID 743043); format: functional, cell-based; settings: IGROV-1
Large T antigen = Large T antigen (Simian virus 40, UniProt P03070); format: functional, Betapolyomavirus macacae;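 note: Confirmatory-stage PubChem screen for compounds that inhibit SV40 T antigen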
[12] = rise of 4N DNA cells, HeLa – IC50, dose response (AID 1117351); format: functional, cell-based
[13] = rise of 2N DNA cells, HeLa – IC50, dose response (AID 1117349); format: functional, cell-based

**Q.** Which results are given for Brc1cc2[nH]cnc2c2ccccc12?
**A.** IC50 (cells): > 138 µM (inactive); IC50 [1]: > 80 µM (inactive); CC50 [2]: 37.8 µM (active); IC50 (Major prion protein): 5.96 µM (active); IC50 (Genome polyprotein): > 49.8 µM (not active)

**Q.** Which results are given for CC(C)N(C)c1ncnc2c1ncn2[C@H]1CN(Cc2cccnc2)C[C@@H](CO)O1?
**A.** IC50 [3]: > 67.5 µM (inactive); EC50 [4]: > 67.5 µM (inactive)

**Q.** For C=CCc1ccc(OCc2ccc(C(=O)OC)o2)c(OC)c1, which IC50 [5] is on record?
**A.** 7.02 µM (active)

**Q.** Which IC50 [6] does the source give for O=C(c1sc2cc(C(F)(F)F)cnc2c1-c1ccccc1)N1CCOCC1 here?
**A.** > 30 µM (not active)

**Q.** Which results are given for Cc1cc(C)c(S(=O)(=O)NCc2ccncc2)c(C)c1?
**A.** IC50 [7]: > 80 µM (inactive); IC50 [8]: 4.96 µM (active); IC50 (Galanin receptor type 2): > 42 µM (not active)

**Q.** For O=c1c2c(nc3n1CCCCC3)sc1c(O)cccc12, which IC50 [9] is on record?
**A.** 55.7 µM (not active)

**Q.** For O=C(Cc1c[nH]c2ccccc12)NNCc1ccc(N(CCCl)CCCl)cc1, which IC50 [3] is on record?
**A.** > 67.5 µM (inactive)

**Q.** And the EC50 [4]?
**A.** > 67.5 µM (inactive)

**Q.** For CCOC(=O)C1=C(O)/C(=C/c2ccc(CNC(=O)C(=O)Nc3ccc(C)cc3)o2)N=C1C, which IC50 (Protein Tat) is on record?
**A.** 47.8 µM (inconclusive)

**Q.** Which AC50 [10] does the source give for C[C@@H]1CCCCO[C@H](CN(C)Cc2ccc(C(F)(F)F)cc2)[C@@H](C)CN([C@@H](C)CO)C(=O)c2cc(NC(=O)Cc3ccccc3)ccc2O1 here?
**A.** 35.2 µM (active)

**Q.** And the AC50 (Paired box protein Pax-8)?
**A.** 9.25 µM (active)

**Q.** And the AC50 [11]?
**A.** 64.6 µM (active)

**Q.** With CC(NC(=O)Nc1ccc(O)cc1)(C(F)(F)F)C(F)(F)F as the compound, how does the IC50 (Large T antigen) read?
**A.** 14.3 µM (active)

**Q.** And the IC50 (Protein Tat)?
**A.** 44.8 µM (inconclusive)

**Q.** Which results are given for CCCCCCCCCCOCC(O)CN (stereo not drawn)?
**A.** IC50 [12]: > 10 µM (inactive); IC50 [13]: > 10 µM (inactive)
